Results as given in patent US12077503B2, “Substituted cyclic amides and their use as herbicides” (FMC CORPORATION, priority 2015, dated 2024).
Where two headings read alike, the source gives them in different places.

Columns and labels:
Format in all cases: in vivo
[1] = system: wheat (Triticum aestivum); test: Test A postemergence; conditions: Triticum aestivum, post-emergence, 240 h, postemergence; for plant injury at 125 g/ha: 125 g ai/ha; for plant injury at 500 g/ha: 500 g ai/ha, 0 to 100 scale, 0 is no effect, 100 is complete control
Procedure, shortened: (§1)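 Seeded soil received test chemicals as a preemergence directed spray, and seedlings at one to two leaves, 2–10 cm tall, received them postemergence, in a non-phytotoxic, surfactant-containing solvent mixture. Pots were held in a greenhouse for approximately 10 d, then rated for injury from 0, no effect, to 100, complete control.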

[2] = system: Galium (catchweed bedstraw, Galium aparine); test: Test A postemergence; conditions: Galium, post-emergence, 240 h, postemergence; for pest or weed control at 125 g/ha: 125 g ai/ha; for pest or weed control at 500 g/ha: 500 g ai/ha, 0 to 100 scale, 0 is no effect, 100 is complete control
Procedure, shortened: as §1

[3] = system: pigweed (Amaranthus retroflexus); test: Test A postemergence; conditions: Amaranthus retroflexus, post-emergence, 240 h, postemergence; for pest or weed control at 125 g/ha: 125 g ai/ha; for pest or weed control at 500 g/ha: 500 g ai/ha, 0 to 100 scale, 0 is no effect, 100 is complete control
Procedure, shortened: as §1

[4] = system: ragweed (common ragweed, Ambrosia elatior); test: Test A postemergence; conditions: Ambrosia artemisiifolia, post-emergence, 240 h, postemergence; for pest or weed control at 125 g/ha: 125 g ai/ha; for pest or weed control at 500 g/ha: 500 g ai/ha, 0 to 100 scale, 0 is no effect, 100 is complete control
Procedure, shortened: as §1

[5] = system: ryegrass, Italian (Italian ryegrass, Lolium multiflorum); test: Test A postemergence; conditions: Lolium multiflorum, post-emergence, 240 h, postemergence; for pest or weed control at 125 g/ha: 125 g ai/ha; for pest or weed control at 500 g/ha: 500 g ai/ha, 0 to 100 scale, 0 is no effect, 100 is complete control
Procedure, shortened: as §1

[6] = system: blackgrass (Alopecurus myosuroides); test: Test A postemergence; conditions: Alopecurus myosuroides, post-emergence, 240 h, postemergence; for pest or weed control at 125 g/ha: 125 g ai/ha; for pest or weed control at 500 g/ha: 500 g ai/ha, 0 to 100 scale, 0 is no effect, 100 is complete control
Procedure, shortened: as §1

corn (Zea mays) = test: Test A postemergence; conditions: Zea mays, post-emergence, 240 h, postemergence; for plant injury at 125 g/ha: 125 g ai/ha; for plant injury at 500 g/ha: 500 g ai/ha, 0 to 100 scale, 0 is no effect, 100 is complete control
Procedure, shortened: as §1

Kochia (Kochia scoparia) = test: Test A postemergence; conditions: Bassia scoparia, post-emergence, 240 h, postemergence; for pest or weed control at 125 g/ha: 125 g ai/ha; for pest or weed control at 500 g/ha: 500 g ai/ha, 0 to 100 scale, 0 is no effect, 100 is complete control
Procedure, shortened: as §1

[7] = system: giant foxtail (Setaria faberii); test: Test A postemergence; conditions: Setaria faberi, post-emergence, 240 h, postemergence; for pest or weed control at 125 g/ha: 125 g ai/ha; for pest or weed control at 500 g/ha: 500 g ai/ha, 0 to 100 scale, 0 is no effect, 100 is complete control
Procedure, shortened: as §1

[8] = system: barnyardgrass (Echinochloa crus-galli); test: Test A postemergence; conditions: Echinochloa crus-galli, post-emergence, 240 h, postemergence; for pest or weed control at 125 g/ha: 125 g ai/ha; for pest or weed control at 500 g/ha: 500 g ai/ha, 0 to 100 scale, 0 is no effect, 100 is complete control
Procedure, shortened: as §1

[9] = system: giant foxtail (Setaria faberii); test: Test A preemergence; conditions: Setaria faberi, pre-emergence, 240 h, preemergence, 0 to 100 scale where 0 is no effect and 100 is complete control, read-out: Foxtail, Giant plant response rating; for pest or weed control at 125 g/ha: 125 g ai/ha, approx. 10 d; for pest or weed control at 500 g/ha: 500 g ai/ha
Procedure, shortened: as §1

rice (Oryra sativa) = test: Test B flooded paddy test; conditions: Oryza sativa, 250 g ai/ha, Flood; 0 to 100 scale where 0 is no effect and 100 is complete control; read-out: Rice plant response rating
Procedure, shortened: (§2)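 Plants at 2-leaf stage flooded to 3 cm above soil, with compounds applied directly to paddy water and that depth maintained. Plants kept in greenhouse 13–15 d. Visual rating versus controls on a 0 (no effect) to 100 (complete control) scale.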

[10] = system: sedge, umbrella (small-flower umbrella sedge, Cyperus difformis); test: Test B flooded paddy test; conditions: Cyperus difformis, 250 g ai/ha, Flood; 0 to 100 scale where 0 is no effect and 100 is complete control; read-out: Sedge, Umbrella plant response rating
Procedure, shortened: as §2

[11] = system: ducksalad (Heteranthera limosa); test: Test B flooded paddy test; conditions: Heteranthera limosa, 250 g ai/ha, Flood; 0 to 100 scale where 0 is no effect and 100 is complete control; read-out: Ducksalad plant response rating
Procedure, shortened: as §2

[12] = system: barnyardgrass (Echinochloa crus-galli); test: Test B flooded paddy test; conditions: Echinochloa crus-galli, 250 g ai/ha, Flood; 0 to 100 scale where 0 is no effect and 100 is complete control; read-out: Barnyardgrass plant response rating
Procedure, shortened: as §2

[13] = read-out: Wheat plant response rating
[14] = read-out: Galium plant response rating
[15] = read-out: Pigweed plant response rating
[16] = read-out: Ragweed plant response rating
[17] = read-out: Ryegrass, Italian plant response rating
[18] = read-out: Blackgrass plant response rating
[19] = read-out: Corn plant response rating
[20] = read-out: Kochia plant response rating
[21] = read-out: Foxtail, Giant plant response rating
[22] = read-out: Barnyardgrass plant response rating

SMILES	plant injury at 500 g/ha [1, 13] [%]	pest or weed control at 500 g/ha [2, 14] [%]	pest or weed control at 500 g/ha [3, 15] [%]	pest or weed control at 500 g/ha [4, 16] [%]	pest or weed control at 500 g/ha [5, 17] [%]	pest or weed control at 500 g/ha [6, 18] [%]	plant injury at 500 g/ha (corn (Zea mays); [19]) [%]	pest or weed control at 500 g/ha (Kochia (Kochia scoparia); [20]) [%]	pest or weed control at 500 g/ha [7, 21] [%]	pest or weed control at 500 g/ha [8, 22] [%]	pest or weed control at 125 g/ha [9] [%]	pest or weed control at 500 g/ha [9] [%]	pest or weed control at 250 g/ha (rice (Oryra sativa)) [%]	pest or weed control at 250 g/ha [10] [%]	pest or weed control at 250 g/ha [11] [%]	pest or weed control at 250 g/ha [12] [%]	also measured
Cc1c(F)cccc1NC(=O)[C@H]1C(=O)N(C)C[C@@H]1c1cc(F)cc(F)c1 [Compound 1140]	70	50	0	30	70	70	70	40	90	90	100	100	0	0	100	75	plant injury at 125 g/ha ([1]; visual injury on 0 to 100 scale (0 no effect, 100 complete control), approx. 10 d, read-out: Wheat plant response rating): 30%; pest or weed control at 125 g/ha ([2]; visual injury on 0 to 100 scale (0 no effect, 100 complete control), approx. 10 d, read-out: Galium plant response rating): 40%; pest or weed control at 125 g/ha ([3]; visual injury on 0 to 100 scale (0 no effect, 100 complete control), approx. 10 d, read-out: Pigweed plant response rating): 0%; pest or weed control at 125 g/ha ([4]; visual injury on 0 to 100 scale (0 no effect, 100 complete control), approx. 10 d, read-out: Ragweed plant response rating): 0%; pest or weed control at 125 g/ha ([5]; visual injury on 0 to 100 scale (0 no effect, 100 complete control), approx. 10 d, read-out: Ryegrass, Italian plant response rating): 50%; pest or weed control at 125 g/ha ([6]; visual injury on 0 to 100 scale (0 no effect, 100 complete control), approx. 10 d, read-out: Blackgrass plant response rating): 30%; plant injury at 125 g/ha (corn (Zea mays); visual injury on 0 to 100 scale (0 no effect, 100 complete control), approx. 10 d, read-out: Corn plant response rating): 60%; pest or weed control at 125 g/ha (Kochia (Kochia scoparia); visual injury on 0 to 100 scale (0 no effect, 100 complete control), approx. 10 d, read-out: Kochia plant response rating): 0%; pest or weed control at 125 g/ha ([7]; visual injury on 0 to 100 scale (0 no effect, 100 complete control), approx. 10 d, read-out: Foxtail, Giant plant response rating): 90%; pest or weed control at 125 g/ha ([8]; visual injury on 0 to 100 scale (0 no effect, 100 complete control), approx. 10 d, read-out: Barnyardgrass plant response rating): 90%
CCc1cc([C@H]2CNC(=O)[C@@H]2C(=O)Nc2cccc(F)c2F)cs1 [Compound 1155]	50	60	0	40	20	0	30	0	70	90	70	90	20	0	100	50	plant injury at 125 g/ha ([1]; visual injury vs untreated controls after approx. 10 d, 0 = no effect, 100 = complete control, read-out: Wheat plant response rating (0 to 100 scale)): 20%; pest or weed control at 125 g/ha ([2]; visual injury vs untreated controls after approx. 10 d, 0 = no effect, 100 = complete control, read-out: Galium plant response rating (0 to 100 scale)): 40%; pest or weed control at 125 g/ha ([3]; visual injury vs untreated controls after approx. 10 d, 0 = no effect, 100 = complete control, read-out: Pigweed plant response rating (0 to 100 scale)): 0%; pest or weed control at 125 g/ha ([4]; visual injury vs untreated controls after approx. 10 d, 0 = no effect, 100 = complete control, read-out: Ragweed plant response rating (0 to 100 scale)): 0%; pest or weed control at 125 g/ha ([5]; visual injury vs untreated controls after approx. 10 d, 0 = no effect, 100 = complete control, read-out: Ryegrass, Italian plant response rating (0 to 100 scale)): 0%; pest or weed control at 125 g/ha ([6]; visual injury vs untreated controls after approx. 10 d, 0 = no effect, 100 = complete control, read-out: Blackgrass plant response rating (0 to 100 scale)): 0%; plant injury at 125 g/ha (corn (Zea mays); visual injury vs untreated controls after approx. 10 d, 0 = no effect, 100 = complete control, read-out: Corn plant response rating (0 to 100 scale)): 20%; pest or weed control at 125 g/ha (Kochia (Kochia scoparia); visual injury vs untreated controls after approx. 10 d, 0 = no effect, 100 = complete control, read-out: Kochia plant response rating (0 to 100 scale)): 0%; pest or weed control at 125 g/ha ([7]; visual injury vs untreated controls after approx. 10 d, 0 = no effect, 100 = complete control, read-out: Foxtail, Giant plant response rating (0 to 100 scale)): 30%; pest or weed control at 125 g/ha ([8]; visual injury vs untreated controls after approx. 10 d, 0 = no effect, 100 = complete control, read-out: Barnyardgrass plant response rating (0 to 100 scale)): 80%
